# Assay results as given in US5250527A, “Pyridyl containing benzimidazoles, compositions and use” (SmithKline & French Laboratories Limited, priority 1988, dated 1993).
# How the values were obtained:
# H^+ -K^+ -ATPase = biological target: T1, H^+ -K^+ -ATPase (Sus scrofa, UniProt P19156); test: K+ stimulated ATPase activity; assay type: biochemical; settings: at pH 6.1 and 7.4; lyophilised gastric vesicles of pig fundic mucosa
# T1 construct: alpha-beta complex
# Protocol: The effects of a single high concentration (1 mM) of a compound of structure (I) on H^+ -K^+ ATPase were determined at pH 6.1 and pH 7.4.
# Compounds of structure (I) were pre-incubated with H^+ -K^+ -ATPase preparation 30 μg protein/ml from (i) in 10 mM Pipes/Tris buffer pH 6.1 and pH 7.4.
# After 30 min at 37° the preincubation was diluted 5-fold with assay buffer to start the ATPase reaction. The conditions in the assay are 100 mM Pipes/Tris, 2 mM MgCl2, 10 mM KCl, 5 μgml nigericin, 2 mM Na2 ATP, pH 7.0.
# The effect of the same concentration of compound of structure (I) (preincubated with H^+ -K^+ -ATPase preparation at pH 7.4 as described above) on the recovery of 100 nmole of inorganic phosphate was also determined.
# Compounds of structure (I) were initially dissolved in dimethyl sulphoxide, polyethylene glycol (Type 400) or Pipes/Tris buffer.
# All data refer to the concentration of compound present in the preincubation before dilution with assay buffer.
# [1] = system: Histamine-Stimulated Gastric Acid Secretion; test: Dog: Conscious Heidenhain Pouch (Histamine-Stimulated Gastric Acid Secretion); assay type: in vivo; settings: Canis lupus familiaris, intravenous
# From the text: B. Dog: Conscious Heidenhain Pouch (Histamine-Stimulated Gastric Acid Secretion)
# Using dogs surgically prepared with Heidenhain pouches 1 to 3 years previously, inhibitory ED50 values against histamine stimulated gastric acid secretion after intravenous administration were obtained.
# [2] = system: rabbit intact gastric glands; test: Aminopyrine (AP) accumulation in intact gastric glands; assay type: cell-based, New Zealand white rabbits; settings: Oryctolagus cuniculus, 0.5 h, inhibition of aminopyrine accumulation, dibutyryl cAMP stimulated, pH 7.4, 30 min
# Protocol: The effect of a single concentration (100 μm) of a compound of structure (I) on dibutyryl cAMP stimulated AP […] in rabbit intact gastric glands was determined. Preferred compounds of structure (I) were tested over a range of concentrations to determine the IC50 value.
# Intact gastric glands were prepared from New Zealand white rabbits by the method of Berghindh et al. (Acta. Physio. Scand. 96, 150, 1976). Gastric mucosal scrapings were digested at 37° C. for 45-60 min. with Collagenase (100 U. Type 1. Sigma), and glands harvested by coarse filtration and sedimentation.
# Test compound was incubated with glands and 300 μM dibutyryl CAMP for 30 minutes at […]. Incubating medium contained 132.5 mM NaCl, 5.4 Mm KCl, 1.0 mM NaH2 PO4. 5.0 mM Na2 HPO4, 1.2 mM MgSO4, 1.0 mM CaCl2, 11.1 mM glucose, 2.0 mg/ml rabbit albumin, 10 μg/ml phenol red, approximately 0.3 μM[^14 C] aminopyrine (110 mCi/mmole), pH 7.4.
# After incubation, glands were centrifuged and the supernatant removed. The glands were dried, weighed and dissolved in NaOH. The distribution of radioactivity between the supernatant and glands is then used to calculate the AP ratio after the method of Berglindh et al. (Acta. Physiol. Scand. 97, 401, 1976).
# The IC50 value is the amount of compound required to inhibit the […] accumulation of aminopyrine by 50%.
# [3] = system: Histamine Stimulated Gastric Acid Secretion; test: Rat: Lumen Perfumed Stomach (Histamine Stimulated Gastric Acid Secretion); assay type: in vivo; settings: i.v.
# From the text: C. Rat: Lumen Perfumed Stomach (Histamine Stimulated Gastric Acid Secretion)
# Using a modification of the procedure described by Ghosh and Schild (Br. J. Pharmacology, 13, 54, 1958), ED50 values after either intraduodenal (i.d) or intravenous (i.v) administration were obtained as follows: […]
# T1 sequence (P19156 whole entry): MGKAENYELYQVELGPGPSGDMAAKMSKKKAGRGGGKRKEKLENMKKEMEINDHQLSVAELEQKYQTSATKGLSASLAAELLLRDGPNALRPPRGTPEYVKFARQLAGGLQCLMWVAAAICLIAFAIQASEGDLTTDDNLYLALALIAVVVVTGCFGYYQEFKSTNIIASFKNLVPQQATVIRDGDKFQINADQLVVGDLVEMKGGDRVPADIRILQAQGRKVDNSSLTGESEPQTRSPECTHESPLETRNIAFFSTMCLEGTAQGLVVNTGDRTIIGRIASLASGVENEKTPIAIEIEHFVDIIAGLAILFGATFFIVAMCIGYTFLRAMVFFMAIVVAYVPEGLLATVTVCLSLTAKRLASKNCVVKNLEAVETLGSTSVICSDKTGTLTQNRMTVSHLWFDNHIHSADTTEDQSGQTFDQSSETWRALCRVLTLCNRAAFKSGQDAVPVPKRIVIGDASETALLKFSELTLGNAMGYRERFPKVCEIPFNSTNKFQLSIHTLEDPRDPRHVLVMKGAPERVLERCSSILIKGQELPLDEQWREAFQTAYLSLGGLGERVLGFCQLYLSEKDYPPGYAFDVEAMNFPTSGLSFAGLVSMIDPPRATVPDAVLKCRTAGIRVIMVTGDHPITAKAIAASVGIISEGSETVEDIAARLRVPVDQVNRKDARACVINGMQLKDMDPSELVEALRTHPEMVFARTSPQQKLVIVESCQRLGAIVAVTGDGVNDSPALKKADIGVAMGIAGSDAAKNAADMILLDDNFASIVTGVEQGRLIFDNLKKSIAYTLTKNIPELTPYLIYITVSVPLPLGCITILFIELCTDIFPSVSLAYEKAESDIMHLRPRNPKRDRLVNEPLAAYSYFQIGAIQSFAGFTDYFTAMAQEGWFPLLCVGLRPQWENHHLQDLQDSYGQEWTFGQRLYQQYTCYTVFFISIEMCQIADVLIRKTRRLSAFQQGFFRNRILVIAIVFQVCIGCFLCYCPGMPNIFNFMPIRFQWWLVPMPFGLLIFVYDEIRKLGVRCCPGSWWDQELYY
# T1 sequence (P18434 whole entry partner): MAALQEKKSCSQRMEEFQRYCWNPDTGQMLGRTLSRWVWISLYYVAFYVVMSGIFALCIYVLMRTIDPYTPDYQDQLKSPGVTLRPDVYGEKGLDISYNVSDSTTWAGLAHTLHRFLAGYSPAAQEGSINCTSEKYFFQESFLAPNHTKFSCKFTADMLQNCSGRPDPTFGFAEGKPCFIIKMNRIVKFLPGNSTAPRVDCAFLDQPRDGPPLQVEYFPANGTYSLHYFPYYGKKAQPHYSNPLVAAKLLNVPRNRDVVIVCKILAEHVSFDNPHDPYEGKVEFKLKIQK
Compound,inhibition of potassium stimulated ATPase activity (H^+ -K^+ -ATPase),ED50 [1] [µmol/kg],IC50 [2] [µM],% inhibition at 1 μM/kg [3] [%]
"2-(4-piperidino-3-chloro-5-methyl-2-pyridylmethylsulphinyl)-4, 5-difluoromethylenedioxy-(1H)-benzimidazole [Example 24]",found to inhibit potassium stimulated ATPase activity,,,
"COc1ccc2[nH]c([S+]([O-])Cc3cc(N)c(Br)cn3)nc2c1 (stereo not drawn) [Example 2, 2 -(4 -amino-5 -bromo-2 -pyridylmethylsulphinyl)-5 -methoxy-(1H)-benzimidazole]",found to inhibit potassium stimulated ATPase activity,2.94,6.6,
"COc1ccc2[nH]c([S+]([O-])Cc3nccc(N4CCOCC4)c3Cl)nc2c1 (stereo not drawn) [Example 4, 2 -(4 -morpholino-3 -chloro-2 -pyridylmethylsulphinyl)-5 -methoxy-(1H)-benzimidazole]",found to inhibit potassium stimulated ATPase activity,1,11,
"COc1ccc2[nH]c([S+]([O-])Cc3ncc(C)c(N4CCOCC4)c3Cl)nc2c1 (stereo not drawn) [Example 6, 2 -(4 -morpholino-3 -chloro-5 -methyl-2 -pyridylmethylsulphinyl)-5 -methoxy-(1H)-benzimidazole]",found to inhibit potassium stimulated ATPase activity,2.2,16.3,
"COc1ccc2[nH]c([S+]([O-])Cc3ncc(C)c(N4CCCCC4)c3Cl)nc2c1 (stereo not drawn) [Example 8, 2 -(4 -piperidino-3 -chloro-5 -methyl-2 -pyridylmethylsulphinyl)-5 -methoxy-(1H)-benzimidazole]",found to inhibit potassium stimulated ATPase activity,,4.2,
"COc1ccc2[nH]c([S+]([O-])Cc3nccc(N4CCCCC4)c3Cl)nc2c1 (stereo not drawn) [Example 10, 2 -(4 -piperidino-3 -chloro-2 -pyridylmethylsulphinyl)-5 -methoxy-(1H)-benzimidazole]",found to inhibit potassium stimulated ATPase activity,1.2,2,
"COc1ccc2[nH]c([S+]([O-])Cc3nccc(N4CCCC4)c3Cl)nc2c1 (stereo not drawn) [Example 12, 2 -(4 -pyrrolidino-3 -chloro-2 -pyridylmethylsulphinyl)-5 -methoxy-(1H)-benzimidazole]",found to inhibit potassium stimulated ATPase activity,,1 to 10,
"COc1ccc2[nH]c([S+]([O-])Cc3ncc(C)c(N4CCCC4)c3Cl)nc2c1 (stereo not drawn) [Example 14, 2 -(4 -pyrrolidino-3 -chloro-5 -methyl-2 -pyridylmethylsulphinyl)-5 -methoxy-(1H)-benzimidazole]",found to inhibit potassium stimulated ATPase activity,,2.6,
"COc1ccc2[nH]c([S+]([O-])Cc3ncc(C)c(N(C)C)c3Cl)nc2c1 (stereo not drawn) [Example 16, 2 -(4 -dimethylamino-3 -chloro-5 -methyl-2 -pyridylmethylsulphinyl)-5 -methoxy-(1H)-benzimidazole]",found to inhibit potassium stimulated ATPase activity,0.29,3.7,
"COc1ccc2[nH]c([S+]([O-])Cc3cc(N4CCCCC4)c(Br)cn3)nc2c1 (stereo not drawn) [Example 18, 2-(4-piperidino-5-bromo-2-pyridylmethylsulphinyl)-5-methoxy-(1H)-benzimidazole]",found to inhibit potassium stimulated ATPase activity,,1.6,
"COc1ccc2[nH]c([S+]([O-])Cc3nccc(N4CCCCC4)c3Br)nc2c1 (stereo not drawn) [Example 20, 2-(4-piperidino-3-bromo-2-pyridylmethylsulphinyl)-5-methoxy-(1H)-benzimidazole]",found to inhibit potassium stimulated ATPase activity,,1.3,
"COc1ccc2[nH]c([S+]([O-])Cc3ncc(Br)c(N4CCCCC4)c3C)nc2c1 (stereo not drawn) [Example 22, 2-(4-piperidino-5-bromo-3-methyl-2-pyridylmethylsulphinyl) -5-methoxy-(1H)-benzimidazole]",found to inhibit potassium stimulated ATPase activity,,9.2,
"Cc1cnc(C[S+]([O-])c2nc3cc(OC(F)(F)C(F)F)ccc3[nH]2)c(Cl)c1N1CCCCC1 (stereo not drawn) [Example 23, 2-(4-piperidino-3-chloro-5-methyl-2-pyridylmethylsulphinyl)-5-(1,1,2,2-tetrafluoroethoxy)-(1H)-benzimidazole]",found to inhibit potassium stimulated ATPase activity,,1.9,
"COc1ccc2[nH]c([S+]([O-])Cc3cc(N(C)C)c(Br)cn3)nc2c1 (stereo not drawn) [Example 25, 2-(4-dimethylamino-5-bromo-2-pyridylmethylsulphinyl)-5-methoxy-(1H)-benzimidazole]",found to inhibit potassium stimulated ATPase activity,0.91,,
"COc1ccc2[nH]c([S+]([O-])Cc3cc(N4CCCC4)c(Br)cn3)nc2c1 (stereo not drawn) [Example 26, 2-(4-pyrrolidino-5-bromo-2-pyridylmethylsulphinyl)-5-methoxy-(1H)-benzimidazole]",found to inhibit potassium stimulated ATPase activity,,,
"COc1ccc2[nH]c([S+]([O-])Cc3nccc(N4CCOCC4)c3F)nc2c1 (stereo not drawn) [Example 28, 2-(4-morpholino-3-fluoro-2-pyridylmethylsulphinyl)-5-methoxy-(1H)-benzimidazole]",,2.75,,
"COc1ccc2[nH]c([S+]([O-])Cc3cc(N4CCOCC4)c(F)cn3)nc2c1 (stereo not drawn) [Example 30, 2-(4-morpholino-5-fluoro-2-pyridylmethylsulphinyl)-5-methoxy-(1H)-benzimidazole]",,5.07,,51
"COc1ccc2[nH]c([S+]([O-])Cc3nccc(N(C)C)c3F)nc2c1 (stereo not drawn) [Example 32, 2-(4-dimethylamino-3-fluoro-2-pyridylmethylsulphinyl)-5-methoxy-(1H)-benzimidazole]",,,,26
"COc1ccc2[nH]c([S+]([O-])Cc3cc(N(C)C)c(F)cn3)nc2c1 (stereo not drawn) [Example 34, 2-(4-dimethylamino-5-fluoro-2-pyridylmethylsulphinyl)-5-methoxy-(1H)-benzimidazole]",,,,37
"COc1ccc2[nH]c([S+]([O-])Cc3ncc(F)c(N4CCOCC4)c3C)nc2c1 (stereo not drawn) [Example 36, 2-(4-morpholino-5-fluoro-3-methyl-2-pyridylmethylsulphinyl)-5-methoxy-(1H)-benzimidazole]",,2.05,,
"COc1cc2nc([S+]([O-])Cc3nccc(N4CCOCC4)c3F)[nH]c2cc1OC (stereo not drawn) [Example 38, 2-(4-morpholino-3-fluoro-2-pyridylmethylsulphinyl)-5,6-dimethoxy-(1H)-benzimidazole]",,,,33
"COc1cc2[nH]c([S+]([O-])Cc3nccc(N4CCOCC4)c3F)nc2cc1C (stereo not drawn) [Example 40, 2-(4-morpholino-3-fluoro-2-pyridylmethylsulphinyl)-5-methyl-6-methoxy-(1H)-benzimidazole]",,2.14,,
"COc1cc2nc([S+]([O-])Cc3nccc(N(C)C)c3F)[nH]c2cc1OC (stereo not drawn) [Example 42, 2-(4-dimethylamino-3-fluoro-2-pyridylmethylsulphinyl)-5,6-dimethoxy-(1H)-benzimidazole]",,,,46
